# In patent US20180237441A1, “Chemical Compounds” (GlaxoSmithKline Intellectual Property (No.2) Limited, priority 2015, published 2018):
# Target: T1, PERK (Homo sapiens, UniProt Q9NZJ5)
# T1 sequence (Q9NZJ5 30-1116): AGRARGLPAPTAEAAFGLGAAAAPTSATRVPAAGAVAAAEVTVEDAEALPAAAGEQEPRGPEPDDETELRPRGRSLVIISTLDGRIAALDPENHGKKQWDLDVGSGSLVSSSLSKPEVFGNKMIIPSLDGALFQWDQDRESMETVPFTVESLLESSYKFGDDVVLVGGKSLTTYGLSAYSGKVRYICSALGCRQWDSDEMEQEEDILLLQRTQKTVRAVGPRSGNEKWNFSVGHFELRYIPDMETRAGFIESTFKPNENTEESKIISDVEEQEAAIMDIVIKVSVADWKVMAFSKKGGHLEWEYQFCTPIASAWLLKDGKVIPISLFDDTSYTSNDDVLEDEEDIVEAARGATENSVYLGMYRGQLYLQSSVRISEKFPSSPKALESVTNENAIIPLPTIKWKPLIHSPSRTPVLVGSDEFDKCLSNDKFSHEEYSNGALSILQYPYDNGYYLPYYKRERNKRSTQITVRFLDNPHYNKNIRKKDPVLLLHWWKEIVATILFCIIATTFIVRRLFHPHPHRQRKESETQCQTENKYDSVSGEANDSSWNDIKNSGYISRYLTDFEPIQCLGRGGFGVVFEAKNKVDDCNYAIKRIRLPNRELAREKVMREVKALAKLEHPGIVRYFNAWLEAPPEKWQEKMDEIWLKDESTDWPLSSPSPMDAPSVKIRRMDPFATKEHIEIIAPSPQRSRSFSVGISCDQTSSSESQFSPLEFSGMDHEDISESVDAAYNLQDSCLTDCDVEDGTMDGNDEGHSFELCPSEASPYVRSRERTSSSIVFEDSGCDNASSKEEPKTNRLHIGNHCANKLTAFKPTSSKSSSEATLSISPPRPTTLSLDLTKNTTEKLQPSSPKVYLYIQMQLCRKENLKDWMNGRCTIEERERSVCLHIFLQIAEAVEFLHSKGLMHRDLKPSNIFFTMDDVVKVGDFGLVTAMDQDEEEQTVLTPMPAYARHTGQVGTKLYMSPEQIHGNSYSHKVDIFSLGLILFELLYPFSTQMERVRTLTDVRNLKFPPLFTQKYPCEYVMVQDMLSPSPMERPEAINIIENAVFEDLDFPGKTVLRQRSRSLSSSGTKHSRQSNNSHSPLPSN
# Experiment: PERK enzyme assay (HTRF)
# Assay type: biochemical
# Conditions: 500 μM ATP; at least one experimental run; read-out: PERK Enzyme (500 μM ATP) IC50
# Method: Compounds of the invention were assayed for PERK enzyme inhibitory activity with modifications to previously reported conditions (Axten et al. J. Med. Chem., 2012, 55, 7193-7207). Briefly, various concentrations of compounds (maximum 1% DMSO) were dispensed into 384-well plates containing GST-PERK enzyme. After 30-60 minutes of compound pre-incubation, ATP and biotin-eIF2α were added and after 60 minutes the reaction was quenched. After 2 hrs, a fluorescence plate reader was used to measure inhibition and IC50s were calculated.
# Enzyme Assay Protocol for PKR-Like Endoplasmic Reticulum Kinase (PERK)—HTRF —% Inhibition
# Assay Buffer contains HEPES (pH7.5) 10 mM, CHAPS 2 mM, MgCl2 5 mM and DTT 1 mM in water
# Detection Buffer contains HEPES (pH7.5) 10 mM and CHAPS 2 mM in water Assay Plate Preparation:
# 1. Enzyme Preparation: • 4× Enzyme solution was prepared immediately prior to adding to compound plates. • 3 nM of GST-PERK in Assay buffer. Final [PERK] in 10 μl assay volume=0.75 nM
# 2. Substrate Preparation: • 4× Substrate solution was prepared immediately prior to adding to compound plates. • 4× Substrate solution in assay buffer 2000 μM ATP and 160 nM Biotin-eIF2α • Final [ATP] in 10 μl assay volume=500 μM • Final [biotin-eIF2a] in 10 μl assay volume=40 nM.
# 3. Quench/Detection Solution: • 16 nM eIF2 Phospho-Antibody • 16 nM Eu anti-Rabbit IgG • 160 nM Streptavidin-APC • 60 mM EDTA • Final concentration in 10 μL assay volume: 4 nM eIF2 Phospho-Antibody, 4 nM Eu anti-Rabbit IgG 40 nM Streptavidin-APC
# The activity of compounds in the PERK enzyme assay was determined at PERK Enzyme (500 μM ATP) IC50 (nM).
row,IC50 [nM],Compound
1,192,"CCN1C(=O)N(c2ccc(-c3cn(C)c4ncnc(N)c34)c(F)c2)CC1c1cc(F)cc(C(F)(F)F)c1 (single isomer, unassigned) [Example 88, 1-(4-(4-amino-7-methyl-7H-pyrrolo[2,3-d]pyrimidin-5-yl)-3-fluorophenyl)-3-ethyl-4-(3-fluoro-5-(trifluoromethyl)phenyl)imidazolidin-2-one]"
2,17.8,"CN1C(=O)N(c2ccc(-c3cn(C4CC4)c4ncnc(N)c34)c(F)c2)CC1c1ccc(F)cc1F (single isomer, unassigned) [Example 137, 1-(4-(4-amino-7-cyclopropyl-7H-pyrrolo[2,3-d]pyrimidin-5-yl)-3-fluorophenyl)-4-(2,4-difluorophenyl)-3-methylimidazolidin-2-one]"

# Same assay, conditions: PERK Enzyme (500 μM ATP) IC50; at least one experimental run; read-out: PERK Activity
row,IC50 [nM],Compound
1,< 100,"CN1C(=O)N(c2ccc(-c3cn(C4CC4)c4ncnc(N)c34)c(F)c2)CC1c1cc(F)cc(F)c1 (stereo not shown) [Example 176, 1-(4-(4-amino-7-cyclopropyl-7H-pvrrolo[2,3-d]pyrimidin-5-yl)-3-fluorophenyl)-4-(3,5-difluorophenyl)-3-methylimidazolidin-2-one]"
2,< 100,"Cc1nc(C2CN(c3ccc(-c4cn(C)c5ncnc(N)c45)c(F)c3)C(=O)N2C)ccc1F (single isomer, unassigned) [Example 113, 1-(4-(4-amino-7-methyl-7H-pyrrolo[2,3-d]pyrimidin-5-yl)-3-fluorophenyl)-4-(5-fluoro-6-methylpyridin-2-yl)-3-methylimidazolidin-2-one]"
3,< 100,"CN1C(=O)N(c2ccc(-c3cn(C)c4ncnc(N)c34)c(Cl)c2)CC1c1cc(F)cc(F)c1 (single isomer, unassigned) [Example 128, 1-(4-(4-amino-7-methyl-7H-pyrrolo[2,3-d]pyrimidin-5-yl)-3-chlorophenyl)-4-(3,5-difluorophenyl)-3-methylimidazolidin-2-one]"
4,100 to 1000,"CCN1C(=O)N(c2ccc(-c3cn(C)c4ncnc(N)c34)c(F)c2)CC1c1cc(F)cc(C(F)(F)F)c1 (single isomer, unassigned) [Example 88, 1-(4-(4-amino-7-methyl-7H-pyrrolo[2,3-d]pyrimidin-5-yl)-3-fluorophenyl)-3-ethyl-4-(3-fluoro-5-(trifluoromethyl)phenyl)imidazolidin-2-one]"
5,100 to 1000,"Cc1nc(N)c2c(-c3ccc(N4CC(c5ccc(F)cc5F)N(C)C4=O)cc3F)cn(C(C)C)c2n1 (single isomer, unassigned) [Example 95, 1-(4-(4-amino-7-isopropyl-2-methyl-7H-pyrrolo[2,3-d]pyrimidin-5-yl)-3-fluorophenyl)-4-(2,4-difluorophenyl)-3-methylimidazolidin-2-one]"
6,< 100,"CN1C(=O)N(c2ccc(-c3cn(C4CC4)c4ncnc(N)c34)c(F)c2)CC1c1cccc(F)c1 (single isomer, unassigned) [Example 126, 1-(4-(4-amino-7-cyclopropyl-7H-pyrrolo[2,3-d]pyrimidin-5-yl)-3-fluorophenyl)-4-(3-fluorophenyl)-3-methylimidazolidin-2-one]"
7,< 100,"CN1C(=O)N(c2ccc(-c3cn(C)c4ncnc(N)c34)c(F)c2)CC1C1CCCCCC1 (stereo not shown) [Example 138, 1-(4-(4-amino-7-methyl-7H-pyrrolo[2,3-d]pyrimidin-5-yl)-3-fluorophenyl)-4-cycloheptyl-3-methylimidazolidin-2-one]"
8,< 100,"Cc1nc(N)c2c(-c3ccc(N4CC(c5cc(F)cc(F)c5)N(C)C4=O)cc3F)cn(C)c2n1 (single isomer, unassigned) [Example 104, 1-(4-(4-amino-2,7-dimethyl-7H-pyrrolo[2,3-d]pyrimidin-5-yl)-3-fluorophenyl)-4-(3,5-difluorophenyl)-3-methylimidazolidin-2-one]"
9,< 100,"CN1C(=O)N(c2ccc(-c3cn(C4CC4)c4ncnc(N)c34)c(F)c2)CC1c1ccc(F)cc1F (single isomer, unassigned) [Example 137, 1-(4-(4-amino-7-cyclopropyl-7H-pyrrolo[2,3-d]pyrimidin-5-yl)-3-fluorophenyl)-4-(2,4-difluorophenyl)-3-methylimidazolidin-2-one]"
10,100 to 1000,"CCN1C(=O)N(c2ccc(-c3cn(C)c4ncnc(N)c34)c(F)c2)CC1c1cc(F)cc(F)c1F (stereo not shown) [Example 55, 1-(4-(4-amino-7-methyl-7H-pyrrolo[2,3-d]pyrimidin-5-yl)-3-fluorophenyl)-3-ethyl-4-(2,3,5-trifluorophenyl)imidazolidin-2-one]"
11,< 100,"CN1C(=O)N(c2ccc(-c3cn(C)c4ncnc(N)c34)c(F)c2)CC1c1ccc(F)c(Cl)c1 (single isomer, unassigned) [Example 133, 1-(4-(4-amino-7-methyl-7H-pyrrolo[2,3-d]pyrimidin-5-yl)-3-fluorophenyl)-4-(3-chloro-4-fluorophenyl)-3-methylimidazolidin-2-one]"
12,< 100,"CN1C(=O)N(c2ccc(-c3cn(C4CC4)c4ncnc(N)c34)c(F)c2)CC1c1cccc(Cl)c1 (stereo not shown) [Example 148, 1-(4-(4-amino-7-cyclopropyl-7H-pyrrolo[2,3-d]pyrimidin-5-yl)-3-fluorophenyl)-4-(3-chlorophenyl)-3-methylimidazolidin-2-one]"

# Further lines, the compound ahead of its results:
row,Compound,IC50 [nM]
1,"Cc1nc(N)c2c(-c3ccc(N4CC(c5ccc(F)cc5F)N(C)C4=O)cc3F)cn(C3CC3)c2n1 (single isomer, unassigned) [Example 8, 1-(4-(4-amino-7-cyclopropyl-2-methyl-7H-pyrrolo[2,3-d]pyrimidin-5-yl)-3-fluorophenyl)-4-(2,4-difluorophenyl)-3-methylimidazolidin-2-one]",< 100
2,"CN1C(=O)N(c2ccc(-c3cn(C)c4ncnc(N)c34)c(F)c2)CC1c1cc(Cl)ccc1F (stereo not shown) [Example 53, 1-(4-(4-amino-7-methyl-7H-pyrrolo[2,3-d]pyrimidin-5-yl)-3-fluorophenyl)-4-(5-chloro-2-fluorophenyl)-3-methylimidazolidin-2-one]",100 to 1000
3,"CCN1C(=O)N(c2ccc(-c3cn(C)c4ncnc(N)c34)cn2)CC1c1cc(F)ccc1F (stereo not shown) [Example 41, 1-(5-(4-amino-7-methyl-7H-pyrrolo[2,3-d]pyrimidin-5-yl)pyridin-2-yl)-4-(2,5-difluorophenyl)-3-ethylimidazolidin-2-one]",100 to 1000
4,"CCN1C(=O)N(c2ccc(-c3csc4ncnc(N)c34)c(F)c2)CC1c1cc(F)ccc1F (stereo not shown) [Example 42, 1-(4-(4-aminothieno[2,3-d]pyrimidin-5-yl)-3-fluorophenyl)-4-(2,5-difluorophenyl)-3-ethylimidazolidin-2-one]",100 to 1000
5,"Cc1nc(N)c2c(-c3ccc(N4CC(c5ccc(F)cc5F)N(C)C4=O)cc3F)c(C)n(C)c2n1 (single isomer, unassigned) [Example 10, 1-(4-(4-amino-2,6,7-trimethyl-7H-pyrrolo[2,3-d]pyrimidin-5-yl)-3-fluorophenyl)-4-(2,4-difluorophenyl)-3-methylimidazolidin-2-one]",> 1000
6,"CN1C(=O)N(c2ccc(-c3cn(C)c4ncnc(N)c34)c(F)c2)CC1c1cc(F)cc(Cl)c1 (single isomer, unassigned) [Example 52, 1-(4-(4-amino-7-methyl-7H-pyrrolo[2,3-d]pyrimidin-5-yl)-3-fluorophenyl)-4-(3-chloro-5-fluorophenyl)-3-methylimidazolidin-2-one]",100 to 1000
7,"CN1C(=O)N(c2ccc(-c3cn(C)c4ncnc(N)c34)cn2)CC1c1cc(F)ccc1F (stereo not shown) [Example 40, 1-(5-(4-amino-7-methyl-7H-pyrrolo[2,3-d]pyrimidin-5-yl)pyridin-2-yl)-4-(2,5-difluorophenyl)-3-methylimidazolidin-2-one]",100 to 1000
8,"Cc1cccc(C2CN(c3ccc(-c4cn(C)c5ncnc(N)c45)c(F)c3)C(=O)N2C)c1 (stereo not shown) [Example 39, 1-(4-(4-amino-7-methyl-7H-pyrrolo[2,3-d]pyrimidin-5-yl)-3-fluorophenyl)-3-methyl-4-(m-tolyl)imidazolidin-2-one]",100 to 1000
